Experimental data as given in US20090176786A1, “Benzoylurea Compounds and Use Thereof” (priority 2005, published 2009).

Legend:
Type in all cases: in vivo
[1] = tested on: Frankliniella occidentalis; experiment: Test Example 4: spray on cucumber, control value against Frankliniella occidentalis larvae; conditions: 168 h, test concentration 50 ppm, spray 20 ml/cup on cucumber, 30 larvae, seven days after spraying
Protocol: The obtained preparation was diluted with water so that the active ingredient concentration became to a predetermined concentration to prepare a spray solution for test. […] were planted in polyethylene cups, and were grown until the first true leaf was developed. The spray solution for test prepared above was sprayed at the rate of 20 ml/cup on the cucumber. After the pesticidal solution sprayed onto the cucumber was dried, the first true leaf was cut off and then placed on a filter paper (diameter: 70 mm) containing water in a polyethylene cup (diameter: 110 mm). On the cucumber leaf, 30 larvae of Frankliniella occidentalis were released, and the polyethylene cup was capped. Seven days after spraying, the number of pests surviving on the cucumber leaf was counted, and a control value was calculated by the following equation: Control value(%)={1−(Cb×Tai)/(Cai×Tb)}×100 wherein, each symbol has following meaning: Cb: the number of pests before treatment in a non-treated area Cai: the number of pests at the time of observation in a non-treated area Tb: the number of pests before treatment in a treated-area Tai: the number of pests at the time of observation in a treated-area. […] The test concentrations of the other present compounds were 50 ppm.

[2] = tested on: Plutella xylostella; experiment: Test Example 1: spray on cabbage, dead pest rate of Plutella xylostella larvae; conditions: 500 ppm spray solution, 20 ml/cup on cabbage, 5 second-instar larvae, after 5 days; for pest or weed control at 500 ppm: Plutella xylostella, 120 h
Protocol: Ten parts of the present compound (1), (2), (5) to (19), (21) to (34), (36) to (61), (63), (64), (68) to (71), (74), (76) to (78), (82) to (83), (89), (93), (94), (97), (99), (102) to (110), (111), (115), (116) (117) to (120) or (123) to (134); 35 parts of white carbon containing 50 parts of polyoxyethylene alkyl ether sulfate ammonium salt; and 55 parts of water were mixed, and finely ground by a wet grinding method to obtain a 10% flowable agent. The obtained flowable agent was diluted with water so that the active ingredient concentration became to 500 ppm to prepare a spray solution for test.
Cabbages were planted in polyethylene cups, and grown until the third true leaf or the fourth true leaf was developed. The spray solution for test prepared above was sprayed at a rate of 20 ml/cup on the cabbages.
After the pesticidal solution sprayed onto the cabbages was dried, 5 second-instar larvae of Plutella xylostella were put on the cabbages. After 5 days, the number of dead Plutella xylostella was examined, and a dead pest rate was calculated by the following equation:
(§1) Dead pest rate(%)=(the number of dead pests/the number of tested pests)×100

[3] = tested on: Plutella xylostella; experiment: Test Example 2: cabbage root immersion (systemic), dead pest rate of Plutella xylostella larvae; conditions: Plutella xylostella, 120 h, root immersion 5 days, 10 second-instar larvae, after 5 days at 24° C.; for pest or weed control at 25 ppm: test concentration 25 ppm
Protocol: In 0.25 mL of a mixture solution of Sorgen TW-20 (manufactured by Daiichi Industries Pharmaceuticals, Co., Ltd.) and acetone (mixture volume ratio; Sorgen TW-20:acetone=1:19), 2.5 mg of the present compound (1), (2), (3), (4), (7), (10), (11), (12), (16), (18), (19), (20), (21), (22), (25), (30), (36), (37), (41), (42), (52), (54), (56), (57), (60), (62), (105) or (109) was dissolved. The solution was diluted with ion-exchanged water so that the active ingredient concentration became to a predetermined concentration to prepare a pesticidal solution for test of the test compound. The root part of cabbages in the fourth leaf period were washed with tap water to remove soils, and then immersed in the pesticidal solution for test. After 5 days from immersion of the root part, the root part was removed, and the leaves and stems were put in a cup (volume; 180 mL). In the cup 10 second-instar larvae of Plutella xylostella were released, and the cup was stored at 24° C. After 5 days, the number of dead pests was counted, and the dead pest rate was calculated by the following equation:
as §1
The test concentrations of the other present compounds were 25 ppm.

[4] = tested on: Plutella xylostella; experiment: Test Example 9: spray on plants, cut aerial part, dead pest rate of third-instar Plutella xylostella larvae; conditions: 120 h, spray 20 ml/cup, 10 third-instar larvae, after 5 days at 25° C.; for pest or weed control at 12.5 ppm: test concentration 12.5 ppm; for pest or weed control at 50 ppm: test concentration 50 ppm; for pest or weed control at 200 ppm: test concentration 200 ppm
Protocol: In a mixed solution (0.1 mL) of xylene and N,N-dimethylformamide (mixture volume ratio; xylene:N,N-dimethylformamide=1:1), 30 mg of the present compounds (3), (4), (20), (35), (62), (81), (100), (101) or (112) was dissolved, and further a mixed solution (0.1 mL) of xylene and SORPOL 3005X (manufactured by Toho Chemcials, Co., Ltd.) (mixture volume ratio; xylene:SORPOL 3005X=1:9) was added thereto. The solution was diluted with ion-exchanged water so that the active ingredient became to the predetermined concentration to prepare a pesticidal solution for test of the test compound.
[…] were planted in polyethylene cups, and grown until the third true leaf or the fourth true leaf was developed. The spray solution for test prepared above was sprayed at a rate of 20 ml/cup on the cabbages.
After the pesticidal solution for test was dried, the aerial part of the cabbage was cut, and put into a polyethylene cup having a volume of 100 ml together with 10 third-instar larvae of Plutella xylostella, and stored at 25° C. After 5 days, the number of dead pests was countered, and the dead pest rate was calculated by the following equation:
as §1
Test concentrations of the others were 200 ppm.

[5] = tested on: Spondoptela litura; experiment: Test Example 3: treated artificial diet (Insecta LF), dead pest rate of Spondoptela litura larvae; conditions: 2 mL on Insecta LF diet, 5 fourth-instar larvae, after 6 days; for pest or weed control at 500 ppm: 144 h
Excerpt: Ten parts of the present compound (1) to (5), (7) to (13), (18) to (33), (35) to (49), (52) to (56), (58) to (61), (71), (73) to (77), (79), (80), (82), (83), (93), (94), (95), (96), (97), (100) to (109), (111), (112), (115), (117), (119), (121), or (123) to (133), 35 parts of white carbon containing 50 parts of polyoxyethylene alkyl ether sulfate ammonium salt, and 55 parts of water were mixed, and finely ground by a wet grinding method to obtain a preparation. The obtained preparation was diluted with water so that the active ingredient concentration became to 500 ppm to prepare a pesticidal solution for test. On the bottom of a polyethylene cup having a diameter of 5.5 cm, a filter paper having a diameter of 5.5 cm was placed, on which Insecta LF (Nippon Agriculture Industries, Co., Ltd.) sliced in a thickness of 6 mm and further cut half was laid, and to which 2 mL of the above-described pesticidal solution for test was added. After air-dried, 5 fourth-instar larvae of Spondoptela litura were released in the cup, and the cup was capped. After 6 days, the number of dead pests was counted, and the dead pest rate was calculated by the following equation:
as §1

[6] = tested on: Plutella xylostella; experiment: Test Example 6: cabbage root immersion, Plutella xylostella, against comparative compound C; conditions: 100 ppm; root immersion 5 days; 10 second-instar larvae; after 5 days at 24° C.
Protocol: (§2) In 0.25 mL of a mixed solution of Tween-20 and acetone (mixture volume ratio: Tween-20:acetone=1:19), 2.5 mg of the present compound (93) or comparative compound C was dissolved. The solution was diluted with ion-exchanged water so that the active ingredient concentration became to the predetermined concentration (100 ppm) to prepare a pesticidal solution for test of the test compound. The root part of cabbages in the fourth leaf period was washed with tap water to remove soils, and then immersed in the pesticidal solution for test. After 5 days from immersion of the root part, the root part was removed, and the leaves and stems were put in a polyethylene cup (volume; 180 mL). In the cup 10 second-instar larvae of Plutella xylostella were released, and the cup was stored at 24° C. After 5 days, the number of dead pests was countered, and the dead pest rate was calculated by the following equation:
as §1

[7] = tested on: Plutella xylostella; experiment: Test Example 7: cabbage root immersion, Plutella xylostella, against comparative compound D; conditions: 25 ppm; root immersion 5 days; 10 second-instar larvae; after 5 days at 24° C.
Protocol: as §2, with “compound (94)” for “compound (93)”, “compound D” for “compound C”, “concentration (25” for “concentration (100”, “a ice cream” for “a polyethylene”
as §1

SMILES: CN(C(=O)NC(=O)c1c(F)cccc1F)c1ccc(SC(F)(F)F)cc1F [(1)]
- pest or weed control at 50 ppm [1]: 100%
- pest or weed control at 500 ppm [2]: 100%
- pest or weed control at 25 ppm [3]: 100%

SMILES: CN(C(=O)NC(=O)c1c(F)cccc1F)c1ccc(SC(F)(F)C(F)F)cc1F [(2)]
- pest or weed control at 50 ppm [1]: 100%
- pest or weed control at 500 ppm [2]: 100%
- pest or weed control at 25 ppm [3]: 100%

SMILES: CN(C(=O)NC(=O)c1c(F)cccc1Cl)c1ccc(SC(F)(F)F)cc1F [(3)]
- pest or weed control at 12.5 ppm [4]: 100%
- pest or weed control at 25 ppm [3]: 100%

SMILES: CCN(C(=O)NC(=O)c1c(F)cccc1F)c1ccc(SC(F)(F)F)cc1F [(4)]
- pest or weed control at 50 ppm [1]: 100%
- pest or weed control at 50 ppm [4]: 100%
- pest or weed control at 25 ppm [3]: 100%

SMILES: CN(C(=O)NC(=O)c1c(F)cccc1F)c1ccc(S(=O)(=O)C(F)(F)F)cc1F [(20)]
- pest or weed control at 12.5 ppm [4]: 100%
- pest or weed control at 5 ppm ([3]; test concentration of 5 ppm, read-out: dead pest rate): 100%

SMILES: Cc1cc(SC(F)F)ccc1N(C)C(=O)NC(=O)c1c(F)cccc1F [(35)]
- pest or weed control at 50 ppm [4]: 100%

SMILES: CN(C(=O)N(CCOc1ccccc1)C(=O)c1c(F)cccc1F)c1ccc(SC(F)(F)F)cc1F [(62)]
- pest or weed control at 50 ppm [1]: 100%
- pest or weed control at 200 ppm [4]: 100%
- pest or weed control at 25 ppm [3]: 100%

SMILES: CN(C(=O)N(CC1CCCO1)C(=O)c1c(F)cccc1F)c1ccc(SC(F)(F)F)cc1F (stereo not shown) [(63)]
- pest or weed control at 500 ppm [2]: 100%

SMILES: CN(C(=O)N(Cc1ccco1)C(=O)c1c(F)cccc1F)c1ccc(SC(F)(F)F)cc1F [(64)]
- pest or weed control at 500 ppm [2]: 100%

SMILES: CN(C(=O)N(CC[S+](C)[O-])C(=O)c1c(F)cccc1F)c1ccc(SC(F)(F)F)cc1F (stereo not shown) [(74)]
- control value [2]: 100%

SMILES: COC(=O)CN(C(=O)c1c(F)cccc1F)C(=O)N(C)c1ccc(SC(F)(F)F)cc1F [(81)]
- pest or weed control at 50 ppm [1]: 100%
- pest or weed control at 200 ppm [4]: 100%

SMILES: CN(C(=O)NC(=O)c1c(F)cccc1F)c1ccc(C(=O)OC(C)(C)C)cc1 [(82)]
- control value [2]: 100%
- dead pest rate ([5]; 500 ppm): 100%

SMILES: C=CCSc1ccc(N(C)C(=O)NC(=O)c2c(F)cccc2F)c(F)c1 [(83)]
- pest or weed control at 500 ppm [2]: 100%
- pest or weed control at 500 ppm [5]: 100%

SMILES: C#CCSc1ccc(N(C)C(=O)NC(=O)c2c(F)cccc2F)c(F)c1 [(89)]
- pest or weed control at 500 ppm [2]: 100%

SMILES: CN(C(=O)NC(=O)c1c(F)cccc1F)c1cc(Cl)c(SC(F)(F)C(F)F)c(Cl)c1 [(93)]
- pest or weed control at 500 ppm [2]: 100%
- dead pest rate [6]: 90%
- pest or weed control at 500 ppm [5]: 100%

SMILES: CN(C(=O)N(C(=O)OCc1ccccc1)C(=O)c1c(F)cccc1F)c1ccc(SC(F)(F)F)cc1F [(97)]
- pest or weed control at 50 ppm [1]: 100%
- pest or weed control at 500 ppm [2]: 100%
- pest or weed control at 500 ppm [5]: 100%

SMILES: CN(C(=O)N(C(=O)c1c(F)cccc1F)S(=O)(=O)c1ccccc1)c1ccc(SC(F)(F)F)cc1F [(99)]
- pest or weed control at 500 ppm [2]: 100%

SMILES: CN(C(=O)NC(=O)c1c(F)cccc1F)c1cc(F)c(SC(F)(F)F)cc1F [(100)]
- pest or weed control at 200 ppm [4]: 100%

SMILES: CN(C(=O)c1c(F)cccc1F)C(=O)N(C)c1cc(F)c(SC(F)(F)F)cc1F [(101)]
- pest or weed control at 50 ppm [1]: 100%
- pest or weed control at 200 ppm [4]: 100%

SMILES: Cc1c(SC(F)F)ccc(N(C)C(=O)NC(=O)c2c(F)cccc2F)c1C [(111)]
- pest or weed control at 500 ppm [2]: 100%
- pest or weed control at 500 ppm [5]: 100%

SMILES: Cc1c(SC(F)F)ccc(N(C)C(=O)N(C)C(=O)c2c(F)cccc2F)c1C [(112)]
- pest or weed control at 50 ppm [4]: 100%
- pest or weed control at 500 ppm [5]: 100%

SMILES: CN(C(=O)N(C(=O)c1c(F)cccc1F)N(C)C)c1ccc(SC(F)(F)F)cc1F [(115)]
- pest or weed control at 500 ppm [2]: 100%
- pest or weed control at 500 ppm [5]: 100%

SMILES: CON(C(=O)c1c(F)cccc1F)C(=O)N(C)c1ccc(SC(F)(F)F)cc1F [(116)]
- pest or weed control at 500 ppm [2]: 100%

SMILES: O=C(NC(=O)c1c(F)cccc1F)Nc1cc(Cl)c(SC(F)(F)C(F)F)c(Cl)c1 [comparative compound C, reference compound]
- dead pest rate [6]: 20%

SMILES: O=C(NC(=O)c1c(F)cccc1F)Nc1ccc(SC(F)(F)C(F)F)cc1 [comparative compound D, reference compound]
- dead pest rate [7]: 20%
